# Key:
# human OCT3 = target: T1, human OCT3 (Homo sapiens, UniProt O75751)
# T1 sequence (O75751 1-556): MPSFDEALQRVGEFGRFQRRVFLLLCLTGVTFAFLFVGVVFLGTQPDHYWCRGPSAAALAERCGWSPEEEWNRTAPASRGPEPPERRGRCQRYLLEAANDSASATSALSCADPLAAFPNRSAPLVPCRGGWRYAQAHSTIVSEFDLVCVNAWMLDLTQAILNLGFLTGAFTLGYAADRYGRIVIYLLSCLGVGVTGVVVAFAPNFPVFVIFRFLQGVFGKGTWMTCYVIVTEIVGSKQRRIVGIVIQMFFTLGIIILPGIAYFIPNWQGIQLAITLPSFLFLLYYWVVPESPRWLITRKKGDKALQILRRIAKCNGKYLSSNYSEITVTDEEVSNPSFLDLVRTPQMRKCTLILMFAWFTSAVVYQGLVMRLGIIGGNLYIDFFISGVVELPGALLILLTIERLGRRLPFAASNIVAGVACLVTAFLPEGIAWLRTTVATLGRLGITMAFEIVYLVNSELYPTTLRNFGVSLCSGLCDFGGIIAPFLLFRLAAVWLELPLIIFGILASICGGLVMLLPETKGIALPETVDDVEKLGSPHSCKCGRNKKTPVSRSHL
# human OATP1B1 = target: T2, human OATP1B1 (Homo sapiens, UniProt Q9Y6L6); parameters: method as in Cao et al. (2019); settings: ref Cao et al. (2019); cited from earlier work
# T2 sequence (Q9Y6L6 1-691): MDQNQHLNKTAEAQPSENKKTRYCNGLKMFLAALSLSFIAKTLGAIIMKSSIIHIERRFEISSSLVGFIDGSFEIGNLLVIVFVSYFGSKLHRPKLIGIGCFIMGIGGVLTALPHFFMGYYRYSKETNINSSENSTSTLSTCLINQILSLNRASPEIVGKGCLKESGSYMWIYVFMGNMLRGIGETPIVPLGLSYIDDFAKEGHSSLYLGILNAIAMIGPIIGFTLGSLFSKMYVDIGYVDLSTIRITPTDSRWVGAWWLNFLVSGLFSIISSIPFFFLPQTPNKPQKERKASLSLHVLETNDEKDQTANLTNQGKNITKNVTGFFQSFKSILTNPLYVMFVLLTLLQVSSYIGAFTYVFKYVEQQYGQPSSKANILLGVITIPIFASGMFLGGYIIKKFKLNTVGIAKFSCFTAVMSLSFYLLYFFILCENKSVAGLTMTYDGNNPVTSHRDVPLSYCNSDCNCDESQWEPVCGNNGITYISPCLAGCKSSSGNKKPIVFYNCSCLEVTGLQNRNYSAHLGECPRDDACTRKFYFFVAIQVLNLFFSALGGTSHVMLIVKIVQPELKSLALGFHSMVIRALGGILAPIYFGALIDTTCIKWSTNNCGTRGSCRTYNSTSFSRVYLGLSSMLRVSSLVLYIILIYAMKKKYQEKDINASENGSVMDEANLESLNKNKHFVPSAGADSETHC
molecule,measurement,setting,value
"O=C(/C=C/c1ccc(O)c(O)c1/C=C/c1ccc(O)c(O)c1)O[C@H](Cc1ccc(O)c(O)c1)C(=O)O [Salvianolic acid A, salvianolic acid A]",TransportTC/TransportMC ratio (net transport ratio),human OCT3,1.31 ± 0.09
salvianolic acid B,substrate of human OATP1B1,human OATP1B1,substrate

# Source: paper PMC9127186, “Molecular Basis Underlying Hepatobiliary and Renal Excretion of Phenolic Acids of Salvia miltiorrhiza Roots (Danshen)” (Frontiers in Pharmacology, 2022)
